Results from PubChem BioAssay AID248 (DTP/NCI, 2004).
Values joined by “and” are separate entries in the source; they are usually repeats but may differ in a detail not shown here. Equal values may be shown once. Toxic doses and inconclusive results are not listed. Rule as the data show it: active = T/C of 150% or more; inactive = T/C below 125%.

System: L1210 leukemia ip in BDF1 mice, survival T/C
Experiment: NCI In Vivo Anticancer Drug Screen. Data for tumor model L1210 Leukemia (intraperitoneal) in B6D2F1 (BDF1) mice
Settings: endpoint: mean survival time, higher = longer survival
Outline: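 Tumor was transplanted into mice, which were then dosed with test compound or vehicle alone. Survival was recorded for each group, and the treated figure was expressed relative to the control figure.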

[1] = dose: 100.0 mg/kg/injection, schedule: Q01DX009 (ip), vehicle: saline with Tween-80
[2] = dose: 100.0 mg/kg/injection, schedule: Q01DX001 (ip), vehicle: saline
[3] = dose: 200.0 mg/kg/injection, schedule: Q01DX001 (ip), vehicle: saline
[4] = dose: 100.0 mg/kg/injection, schedule: Q01DX009 (ip), vehicle: saline
[5] = dose: 100.0 mg/kg/injection, schedule: Q04DX003 (ip), vehicle: saline
[6] = dose: 200.0 mg/kg/injection, schedule: Q01DX009 (ip), vehicle: saline
[7] = dose: 200.0 mg/kg/injection, schedule: Q04DX003 (ip), vehicle: saline
[8] = dose: 400.0 mg/kg/injection, schedule: Q01DX009 (ip), vehicle: saline
[9] = dose: 400.0 mg/kg/injection, schedule: Q04DX003 (ip), vehicle: saline
[10] = dose: 100.0 mg/kg/injection, schedule: Q01DX001 (ip), vehicle: Klucel (hydroxypropylcellulose) (HPC)
[11] = dose: 200.0 mg/kg/injection, schedule: Q01DX001 (ip), vehicle: Klucel (hydroxypropylcellulose) (HPC)
[12] = dose: 400.0 mg/kg/injection, schedule: Q01DX001 (ip), vehicle: Klucel (hydroxypropylcellulose) (HPC)
[13] = dose: 100.0 mg/kg/injection, schedule: Q01DX001 (ip), vehicle: saline with Tween-80
[14] = dose: 200.0 mg/kg/injection, schedule: Q01DX001 (ip), vehicle: saline with Tween-80
[15] = dose: 400.0 mg/kg/injection, schedule: Q01DX001 (ip), vehicle: saline with Tween-80
[16] = dose: 100.0 mg/kg/injection, schedule: Q04DX002 (ip), vehicle: Klucel (hydroxypropylcellulose) (HPC)
[17] = dose: 200.0 mg/kg/injection, schedule: Q04DX002 (ip), vehicle: Klucel (hydroxypropylcellulose) (HPC)
[18] = dose: 400.0 mg/kg/injection, schedule: Q04DX002 (ip), vehicle: Klucel (hydroxypropylcellulose) (HPC)
[19] = dose: 100.0 mg/kg/injection, schedule: Q04DX003 (ip), vehicle: Klucel (hydroxypropylcellulose) (HPC)
[20] = dose: 200.0 mg/kg/injection, schedule: Q04DX003 (ip), vehicle: Klucel (hydroxypropylcellulose) (HPC)
[21] = dose: 400.0 mg/kg/injection, schedule: Q04DX003 (ip), vehicle: Klucel (hydroxypropylcellulose) (HPC)

Measured: T/C

CCCCCCCCCCCCOB(OCCCCCCCCCCCC)OCCCCCCCCCCCC
inactive: dose: 50.0 mg/kg/injection, schedule: Q01DX001 (ip), vehicle: carboxymethylcellulose (CMC) 96 % of control | dose: 100.0 mg/kg/injection, schedule: Q01DX001 (ip), vehicle: carboxymethylcellulose (CMC) 102 % of control | [1] 98 % of control | dose: 200.0 mg/kg/injection, schedule: Q01DX001 (ip), vehicle: carboxymethylcellulose (CMC) 94 % of control | dose: 400.0 mg/kg/injection, schedule: Q01DX001 (ip), vehicle: carboxymethylcellulose (CMC) 94 % of control

CCOP(=O)(OCC)Oc1cc(C)c(C#N)c(C)c1
inactive: dose: 5.0 mg/kg/injection, schedule: Q01DX001 (ip), vehicle: saline 108 % of control | dose: 10.0 mg/kg/injection, schedule: Q01DX001 (ip), vehicle: saline 108 % of control | dose: 20.0 mg/kg/injection, schedule: Q01DX001 (ip), vehicle: saline 100 % of control | dose: 40.0 mg/kg/injection, schedule: Q01DX001 (ip), vehicle: saline 103 % of control

O=C(O)/C(S)=C\c1ccc(Cl)cc1
inactive: [2] 97 % of control | [3] 94 % of control

CC(O)(c1ccc(Br)cc1)C(c1ccccc1)c1ccccn1 (configuration not stated)
inactive: dose: 50.0 mg/kg/injection, schedule: Q01DX009 (ip), vehicle: saline 103 % of control | [4] 94 % of control | [5] 110 % of control | [6] 94 % of control | [7] 103 % of control | [8] 101 % of control | [9] 110 % of control

CCOc1nc(Cl)nc2nc[nH]c12
inactive: [2] 102 % of control | [3] 102 % of control | dose: 400.0 mg/kg/injection, schedule: Q01DX001 (ip), vehicle: saline 96 % of control

Clc1ccc(SCC#CCOc2ccc(Cl)cc2Cl)cc1
inactive: [10] 89 % of control | [11] 95 % of control | [12] 97 % of control

N/C(=N/N=C/c1ccccc1O)N/N=C\c1ccccc1O
inactive: dose: 15.0 mg/kg/injection, schedule: Q01DX Z (ip), vehicle: carboxymethylcellulose (CMC) 93 % of control | dose: 30.0 mg/kg/injection, schedule: Q01DX Z (ip), vehicle: carboxymethylcellulose (CMC) 92 % of control | dose: 60.0 mg/kg/injection, schedule: Q01DX Z (ip), vehicle: carboxymethylcellulose (CMC) 97 % of control and 89 % of control | dose: 120.0 mg/kg/injection, schedule: Q01DX Z (ip), vehicle: carboxymethylcellulose (CMC) 92 % of control and 100 % of control | dose: 240.0 mg/kg/injection, schedule: Q01DX Z (ip), vehicle: carboxymethylcellulose (CMC) 100 % of control | dose: 240.0 mg/kg/injection, schedule: Q01DX Z (oral), vehicle: carboxymethylcellulose (CMC) 105 % of control | dose: 480.0 mg/kg/injection, schedule: Q01DX Z (ip), vehicle: carboxymethylcellulose (CMC) 94 % of control | dose: 480.0 mg/kg/injection, schedule: Q01DX Z (oral), vehicle: carboxymethylcellulose (CMC) 105 % of control | dose: 960.0 mg/kg/injection, schedule: Q01DX Z (oral), vehicle: carboxymethylcellulose (CMC) 105 % of control | dose: 1920.0 mg/kg/injection, schedule: Q01DX Z (oral), vehicle: carboxymethylcellulose (CMC) 113 % of control

N#CCC[N+]1([O-])CCCCC1C(=O)O (configuration not stated)
inactive: [2] 98 % of control | [3] 98 % of control

O=C(c1ccccc1)c1cc(Cl)ccc1N1C(=O)C=CC1=O
inactive: dose: 25.0 mg/kg/injection, schedule: Q04DX002 (ip), vehicle: saline with Tween-80 90 % of control

O=C1CCC([N+](=O)[O-])C(c2ccc3ccccc3c2)N1 (configuration not stated)
inactive: [13] 95 % of control | [14] 95 % of control | [15] 95 % of control

CSc1ccc(NC(=O)c2ccc([N+](=O)[O-])cc2)cc1
inactive: [16] 95 % of control | [17] 95 % of control | [18] 92 % of control

COc1cc(OC)c(NC2=CC(c3ccc(Cl)cc3)OC2=O)cc1Cl (configuration not stated)
inactive: [10] 92 % of control | [19] 92 % of control | [11] 94 % of control | [20] 95 % of control | [12] 92 % of control | [21] 95 % of control

CCC(=O)c1ccc(OCC(O)CN2CCN(c3ccccc3Cl)CC2)cc1 (configuration not stated)
inactive: [13] 101 % of control | [1] 95 % of control | [14] 104 % of control | dose: 200.0 mg/kg/injection, schedule: Q01DX009 (ip), vehicle: saline with Tween-80 95 % of control | [15] 102 % of control | dose: 400.0 mg/kg/injection, schedule: Q01DX009 (ip), vehicle: saline with Tween-80 88 % of control

Nc1nc(-c2ccccc2)nc2nc3[nH]c(=O)[nH]c(=O)c3nc12
inactive: [16] 94 % of control | [17] 102 % of control | [18] 98 % of control

Nc1ccc(-c2ccc(Br)cc2)cc1
inactive: dose: 75.0 mg/kg/injection, schedule: Q01DX001 (ip), vehicle: carboxymethylcellulose (CMC) 101 % of control | dose: 150.0 mg/kg/injection, schedule: Q01DX001 (ip), vehicle: carboxymethylcellulose (CMC) 100 % of control

CC(C)(C)OC(=O)NO
inactive: [4] 103 % of control | dose: 100.0 mg/kg/injection, schedule: Q04DX002 (ip), vehicle: saline 110 % of control | [5] 104 % of control | [6] 100 % of control | dose: 200.0 mg/kg/injection, schedule: Q04DX002 (ip), vehicle: saline 98 % of control | [7] 104 % of control | [8] 108 % of control | dose: 400.0 mg/kg/injection, schedule: Q04DX002 (ip), vehicle: saline 110 % of control | [9] 106 % of control

C1CCC(P(C2CCCCC2)C2CCCCC2)CC1
inactive: [19] 93 % of control | [20] 93 % of control | [21] 89 % of control
